Molecules are shown by their SMILES.

This test addresses T1, MAGL (Homo sapiens, UniProt Q99685).
T1 sequence (Q99685 1-303): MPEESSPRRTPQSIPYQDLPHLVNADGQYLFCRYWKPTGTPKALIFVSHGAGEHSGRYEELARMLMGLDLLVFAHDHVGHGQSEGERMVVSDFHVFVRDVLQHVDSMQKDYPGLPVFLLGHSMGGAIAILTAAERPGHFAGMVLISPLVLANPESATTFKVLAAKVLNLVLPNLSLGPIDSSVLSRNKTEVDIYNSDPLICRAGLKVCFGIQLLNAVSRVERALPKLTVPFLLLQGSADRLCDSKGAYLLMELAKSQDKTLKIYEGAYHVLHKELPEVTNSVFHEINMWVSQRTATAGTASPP
Kind of test: 2-AG assay (MAGL inhibitory activity, hydrolysis of 2-arachidonoylglycerol to arachidonic acid followed by mass spectrometry). In kind it is biochemical. Conditions: 8 μM 2-arachidonoylglycerol, 15 min pre-incubation, 30 min incubation at RT, RapidFire MS readout. The source says:
Compounds of formula (I) were profiled for MAGL inhibitory activity by determining the enzymatic activity by following the hydrolysis of the natural substrate 2-arachidonoylglycerol (2-AG) resulting in arachidonic acid, which can be followed by mass spectrometry. This assay is hereinafter abbreviated “2-AG assay”.
Compounds of formula (I) were profiled for MAGL inhibitory activity by determining the enzymatic activity by following the hydrolysis of the natural substrate 2-arachidonoylglycerol (2-AG) resulting in arachidonic acid, which can be followed by mass spectrometry. This assay is hereinafter abbreviated “2-AG assay”. The 2-AG assay was carried out in 384 well polypropylene assay plates. […] Compound dilutions were added to MAGL protein in assay buffer (50 mM TRIS, 1 mM EDTA, 0.01% (v/v) Tween-20, 2.5% (v/v) DMSO). After shaking, the plate was incubated for 15 min at RT. To start the reaction, 2-arachidonoylglycerol in assay buffer was added. The final concentrations in the assay was […] for MAGL protein and 8 μM 2-arachidonoylglyerol. After shaking and 30 min incubation at RT, the reaction was quenched by the addition of two assay volumes of acetonitrile containing 4 μM of d8-arachidonic acid. The amount of arachidonic acid formed was traced by an online SPE system (Agilent Rapidfire) coupled to a triple quadrupole mass spectrometer. A C18 SPE cartridge (Agilent G9205A) was used in an acetonitrile/water liquid setup. The mass spectrometer was operated in negative electrospray mode following the mass transitions 303.1→259.1 for arachidonic acid and 311.1→267.0 for d8-arachidonic acid. The activity of the compounds was calculated based on the ratio of intensities [arachidonic acid/d8-arachidonic acid].
The term IC50 denotes the concentration that inhibits the measured activity by half. Regarding `O=C(N1C[C@H]2CC(Oc3ccc(C(F)(F)F)cc3F)C[C@H]2C1)N1CC2(CC(n3cnc(C4CC4)n3)C2)C1` (mixture of isomers) [Example 89, [6-(3-cyclopropyl-1,2,4-triazol-1-yl)-2-azaspiro[3.3]heptan-2-yl]-[rac-(3aS,6aR)-5-[2-fluoro-4-(trifluoromethyl)phenoxy]-3,3a,4,5,6,6a-hexahydro-1H-cyclopenta[c]pyrrol-2-yl]methanone], the IC50 was 2.5 nM.

On to `O=C(N1C[C@H]2CC(Oc3ccc(F)cc3Cl)C[C@H]2C1)N1CC2(CC(n3cnc(C4CC4)c3)C2)C1` (mixture of isomers) [Example 91, [6-(4-cyclopropylimidazol-1-yl)-2-azaspiro[3.3]heptan-2-yl]-[rac-(3aR,6aS)-5-(2-chloro-4-fluoro-phenoxy)-3,3a,4,5,6,6a-hexahydro-1H-cyclopenta[c]pyrrol-2-yl]methanone], for which the IC50 is 6.3 nM.

`O=C(N1C[C@H]2CC(Oc3ccc(F)cc3Cl)C[C@H]2C1)N1CC2(CC(n3cnc(C4CC4)n3)C2)C1` (mixture of isomers) [Example 93, [6-(3-cyclopropyl-1,2,4-triazol-1-yl)-2-azaspiro[3.3]heptan-2-yl]-[rac-(3aR,6aS)-5-(2-chloro-4-fluoro-phenoxy)-3,3a,4,5,6,6a-hexahydro-1H-cyclopenta[c]pyrrol-2-yl]methanone]: the IC50 worked out at 1 nM.

Compound `O=C(N1C[C@H]2CC(Oc3ccc(F)c(Cl)c3)C[C@H]2C1)N1CC2(CC(n3cnc(C4CC4)n3)C2)C1` (mixture of isomers) [Example 126, [6-(3-cyclopropyl-1,2,4-triazol-1-yl)-2-azaspiro[3.3]heptan-2-yl]-[rac-(3aS,6aR)-5-(4-fluoro-3-chloro-phenoxy)-3,3a,4,5,6,6a-hexahydro-1H-cyclopenta[c]pyrrol-2-yl]methanone] registered an IC50 of 1.5 nM.

As to `O=C(N1C[C@H]2CC(Oc3ccc(F)cc3Cl)C[C@H]2C1)N1CC2(CC(n3cnnc3C3CC3)C2)C1` (mixture of isomers) [Example 178, [6-(3-cyclopropyl-1,2,4-triazol-4-yl)-2-azaspiro[3.3]heptan-2-yl]−[rac-(3aS,6aR)-5-(2-chloro-4-fluoro-phenoxy)-3,3a,4,5,6,6a-hexahydro-1H-cyclopenta[c]pyrrol-2-yl]methanone], the IC50 is 156 nM.

For the compound `O=C(N1CC(c2ccc(N3CCC(O)(C(F)(F)F)C3)nc2)C1)N1CC2(CC(n3cnc(C4CC4)n3)C2)C1` (single isomer, unassigned) [Example 214], the IC50 amounted to 1.6 nM.

Take `NC(=O)C(c1ccc(F)cc1)C1CCN(C(=O)N2CC3(CC(n4cnc(C5CC5)n4)C3)C2)CC1` (single isomer, unassigned) [Example 291]: the IC50 was found to be 76.2 nM.

`NC(=O)C(c1ccc(F)cc1)C1CCN(C(=O)N2CC3(CC(n4cnc(C5CC5)n4)C3)C2)CC1` (single isomer, unassigned) [Example 301] returned an IC50 of 97.3 nM.

`N=S(=O)(c1cccc(CC2CC3(C2)CN(C(=O)N2CC4(CC(n5cnc(C6(O)CC6)n5)C4)C2)C3)c1)C(F)(F)F` (single isomer, unassigned) [Example 406, [6-[3-(1-hydroxycyclopropyl)-1,2,4-triazol-1-yl]-2-azaspiro[3.3]heptan-2-yl]-[6-[[3-(trifluoromethyl-sulfonimidoyl)phenyl]methyl]-2-azaspiro[3.3]heptan-2-yl]methanone] came in with an IC50 of 1.63 nM.

Compound `N=S(=O)(c1cccc(CC2CC3(C2)CN(C(=O)N2CC4(CC(n5cnc(C6(O)CC6)n5)C4)C2)C3)c1)C(F)(F)F` (single isomer, unassigned) [Example 407, [6-[3-(1-hydroxycyclopropyl)-1,2,4-triazol-1-yl]-2-azaspiro[3.3]heptan-2-yl]-[6-[[3-(trifluoromethyl-sulfonimidoyl)phenyl]methyl]-2-azaspiro[3.3]heptan-2-yl]methanone] yielded an IC50 of 0.25 nM.

For the compound `CS(=N)(=O)c1cccc(CC2CC3(C2)CN(C(=O)N2CC4(CC(n5cnc(C6CC6)n5)C4)C2)C3)c1` (single isomer, unassigned) [Example 440, [6-(3-cyclopropyl-1,2,4-triazol-1-yl)-2-azaspiro[3.3]heptan-2-yl]-[6-[[3-(methylsulfonimidoyl)phenyl]methyl]-2-azaspiro[3.3]heptan-2-yl]methanone], 1.88 nM corresponded to half-maximal inhibition (IC50).

Take `CS(=N)(=O)c1cccc(CC2CC3(C2)CN(C(=O)N2CC4(CC(n5cnc(C6CC6)n5)C4)C2)C3)c1` (single isomer, unassigned) [Example 441, [6-(3-cyclopropyl-1,2,4-triazol-1-yl)-2-azaspiro[3.3]heptan-2-yl]-[6-[[3-(methylsulfonimidoyl)phenyl]methyl]-2-azaspiro[3.3]heptan-2-yl]methanone]: it took 1.97 nM to reach half-maximal inhibition (IC50).

Turning to `CS(=N)(=O)c1ccc(CC2CC3(C2)CN(C(=O)N2CC4(CC(n5cnc(C6CC6)n5)C4)C2)C3)cc1` (single isomer, unassigned) [Example 442, [6-(3-cyclopropyl-1,2,4-triazol-1-yl)-2-azaspiro[3.3]heptan-2-yl]-[6-[[4-(methylsulfonimidoyl)phenyl]methyl]-2-azaspiro[3.3]heptan-2-yl]methanone], half-maximal inhibition (IC50) required 2.22 nM.

Regarding `CS(=N)(=O)c1ccc(CC2CC3(C2)CN(C(=O)N2CC4(CC(n5cnc(C6CC6)n5)C4)C2)C3)cc1` (single isomer, unassigned) [Example 443, [6-(3-cyclopropyl-1,2,4-triazol-1-yl)-2-azaspiro[3.3]heptan-2-yl]-[6-[[4-(methylsulfonimidoyl)phenyl]methyl]-2-azaspiro[3.3]heptan-2-yl]methanone], the IC50 was determined as 4.31 nM.

Compound `NC(=O)[C@H]1CC(F)(F)CCN1c1ccc(C2CN(C(=O)N3CC4(CC(n5cnc(C6CC6)n5)C4)C3)C2)cc1` (single isomer, unassigned) [Example 493] returned an IC50 of 1.28 nM.

`NC(=O)[C@H]1CC(F)(F)CCN1c1ccc(C2CN(C(=O)N3CC4(CC(n5cnc(C6CC6)n5)C4)C3)C2)cc1` (single isomer, unassigned) [Example 494] had an IC50 of 2.34 nM.

In turn, `O=C(N1CC2(CC(n3cnc(C4(O)CC4)n3)C2)C1)N1CC2(CC[C@H](Cc3ncc(F)cc3F)C2)C1` (stereo in doubt) [Example 351, [6-[3-(1-hydroxycyclopropyl)-1,2,4-triazol-1-yl]-2-azaspiro[3.3]heptan-2-yl]-[(6S)-6-[(3,5-difluoro-2-pyridyl)methyl]-2-azaspiro[3.4]octan-2-yl]methanone] displayed an IC50 of 24.7 nM.

The compound `O=C(N1CC2(CC(n3cnc(C4(O)CC4)n3)C2)C1)N1CC2(CC[C@@H](Cc3ncc(F)cc3F)C2)C1` (stereo in doubt) [Example 352, [6-[3-(1-hydroxycyclopropyl)-1,2,4-triazol-1-yl]-2-azaspiro[3.3]heptan-2-yl]-[(6R)-6-[(3,5-difluoro-2-pyridyl)methyl]-2-azaspiro[3.4]octan-2-yl]methanone] showed an IC50 of 4.36 nM.

Compound `O=C(N1CC(c2ccc(N3CCC(C(F)(F)F)C3)nc2)C1)N1CC2(CC(n3cnc(C4CC4)n3)C2)C1` (stereo in doubt) [Example 480, [6-(3-cyclopropyl-1,2,4-triazol-1-yl)-2-azaspiro[3.3]heptan-2-yl]-[3-[6-[(3S)-3-(trifluoromethyl)pyrrolidin-1-yl]-3-pyridyl]azetidin-1-yl]methanone] displayed an IC50 of 0.49 nM.

For the compound `O=C(N1CC(c2ccc(C3(C(F)(F)F)CC3)cc2)C1)N1CC2(CC(n3cnc(C4CC4)n3)C2)C1` [Example 1, (6-(3-cyclopropyl-1H-1,2,4-triazol-1-yl)-2-azaspiro[3.3]heptan-2-yl)(3-(4-(1-(trifluoromethyl)cyclopropyl)phenyl)azetidin-1-yl)methanone], the midpoint of inhibition, the IC50, lay at 0.1 nM.

In turn, `O=C(N1CC(c2nc(CC3(C(F)(F)F)CC3)no2)C1)N1CC2(CC(n3cnc(C4CC4)n3)C2)C1` [Example 2, [6-(3-cyclopropyl-1,2,4-triazol-1-yl)-2-azaspiro[3.3]heptan-2-yl]-[3-[3-[[1-(trifluoromethyl)cyclo-propyl]methyl]-1,2,4-oxadiazol-5-yl]azetidin-1-yl]methanone] displayed an IC50 of 25.7 nM.

`CC(C)(C)c1nc(-c2ccc(C(=O)N3CC4(CC(n5cnc(C6CC6)n5)C4)C3)cc2)no1` [Example 3, [4-(5-tert-butyl-1,2,4-oxadiazol-3-yl)phenyl]−[6-(3-cyclopropyl-1,2,4-triazol-1-yl)-2-azaspiro[3.3]heptan-2-yl]methanone] had an IC50 of 5.1 nM.

`CC(C)(C)c1nc(-c2ccc(C(=O)N3CC4(CC(n5cnc(C(F)(F)F)n5)C4)C3)cc2)no1` [Example 4, (4-(5-(tert-butyl)-1,2,4-oxadiazol-3-yl)phenyl)(6-(3-(trifluoromethyl)-1H-1,2,4-triazol-1-yl)-2-azaspiro[3.3]heptan-2-yl)methanone] returned an IC50 of 11.4 nM.

(Values after patent US20240199587A1, “HETEROCYCLIC COMPOUNDS” (Hoffmann-La Roche Inc., priority 2021, published 2024).)
